Columns and labels:
[1] = tested on: mouse mesenteric arteries; experiment: Wire myography, mesenteric artery strips precontracted with high K+ (KPSS); details: for relaxation of KPSS-contracted vessel strips by TRPM8 agonists: wild type, menthol 300μM, icilin 50 μM, WS-12 50μM
hTRPA1 [2] = biological target: T1, hTRPA1 (Homo sapiens, UniProt O75762); experiment: TRP channel panel primary screen (FLIPR Calcium 5, stable HEK line); type: cell-based; details: 0.3-300μM; effects over the micromolar range
T1 sequence (O75762 whole entry): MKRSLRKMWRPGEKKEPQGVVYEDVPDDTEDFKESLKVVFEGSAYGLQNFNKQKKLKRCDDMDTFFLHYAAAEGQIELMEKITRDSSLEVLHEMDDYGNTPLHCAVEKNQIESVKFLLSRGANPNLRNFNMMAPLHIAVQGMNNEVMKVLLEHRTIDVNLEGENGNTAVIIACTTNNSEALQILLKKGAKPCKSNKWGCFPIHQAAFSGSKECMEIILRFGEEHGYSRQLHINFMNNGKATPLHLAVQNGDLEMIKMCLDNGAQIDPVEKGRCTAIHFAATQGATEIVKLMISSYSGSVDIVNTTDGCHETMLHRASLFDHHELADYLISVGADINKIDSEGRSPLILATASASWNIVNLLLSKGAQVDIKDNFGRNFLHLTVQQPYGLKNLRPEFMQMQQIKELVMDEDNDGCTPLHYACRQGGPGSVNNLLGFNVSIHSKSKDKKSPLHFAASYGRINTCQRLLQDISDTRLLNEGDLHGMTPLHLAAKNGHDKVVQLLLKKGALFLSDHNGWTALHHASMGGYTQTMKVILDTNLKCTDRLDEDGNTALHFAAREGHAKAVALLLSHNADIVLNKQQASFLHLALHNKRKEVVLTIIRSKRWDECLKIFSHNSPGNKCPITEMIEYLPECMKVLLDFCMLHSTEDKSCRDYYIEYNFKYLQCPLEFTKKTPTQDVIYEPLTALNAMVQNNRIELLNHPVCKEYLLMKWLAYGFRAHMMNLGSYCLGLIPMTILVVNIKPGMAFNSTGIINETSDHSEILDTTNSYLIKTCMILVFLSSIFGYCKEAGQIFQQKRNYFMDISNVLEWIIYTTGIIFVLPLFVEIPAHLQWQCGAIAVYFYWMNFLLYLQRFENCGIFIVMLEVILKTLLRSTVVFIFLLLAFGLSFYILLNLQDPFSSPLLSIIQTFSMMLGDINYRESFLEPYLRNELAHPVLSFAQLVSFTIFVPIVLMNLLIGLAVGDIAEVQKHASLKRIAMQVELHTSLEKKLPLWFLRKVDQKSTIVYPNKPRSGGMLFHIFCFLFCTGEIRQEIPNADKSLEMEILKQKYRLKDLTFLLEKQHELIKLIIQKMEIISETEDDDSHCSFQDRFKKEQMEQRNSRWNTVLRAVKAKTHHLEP
Experimental: (§1) ±PZQ, (R)-PZQ and (S)-PZQ were screened against a panel of 17 human TRP channels (SB Drug Discovery, Glasgow). For all hTRPs, except for TRPM5, individual channel constructs were stably expressed in HEK cell lines. TRMP5 was expressed in a stable CHO cell line. In preparation for the assays, cells were trypsinized, counted and seeded (50,000 cells/well) in black, clear-bottomed 96 well plates and incubated overnight. The following day, cells were loaded with a fluorescent indicator (FLIPR Calcium 5 Assay kit for TRPA1, TRPV1, TRPV2, TRPV3, TRPV4, TRPV5, TRPC1, TRPM2, TRPM3 and TRPM8, or a membrane potential dye (FLIPR Membrane Potential Red Assay Kit for TRPC3, TRPC4, TRPC5, TRPC6, TRPC7, TRPM4 and TRPM5) prepared according to the manufacturer’s instructions in HEPES buffered Hank’s balanced salt solution (HBSS). Dye solution (10μl) was added to appropriate wells and incubated at 37°C for 1 hour. All assays were performed at room temperature. Compounds were tested at 0.3, 1, 3, 10, 30, 100μM and 300μM in triplicate in both agonist and antagonist mode to determine EC50 and IC50 values, which were compared with reference compounds. Compounds were screened at a final DMSO concentration of 0.5%. Plates were screened using a Flexstation (Molecular Devices, FX01138), monitoring fluorescence values every ~1.52 seconds. For ‘agonist mode’ testing, 10μl of the appropriate test compound, or standard agonist, was added after 20 seconds and fluorescence monitored for 2 minutes at λex = 485nm, λem = 525nm for Ca^2+ imaging and λex = 530nm, λem = 565nm for membrane potential measurements. For ‘antagonist mode’ testing, test compounds and standard inhibitors were added to appropriate wells and incubated for 10 minutes at room temperature prior to addition of standard agonist compound.

hTRPC3 = biological target: T2, hTRPC3 (Homo sapiens, UniProt Q13507); experiment: TRP channel panel primary screen (membrane potential dye, stable HEK line); type: cell-based; details: 0.3-300μM; effects over the micromolar range
T2 sequence (Q13507 1-921): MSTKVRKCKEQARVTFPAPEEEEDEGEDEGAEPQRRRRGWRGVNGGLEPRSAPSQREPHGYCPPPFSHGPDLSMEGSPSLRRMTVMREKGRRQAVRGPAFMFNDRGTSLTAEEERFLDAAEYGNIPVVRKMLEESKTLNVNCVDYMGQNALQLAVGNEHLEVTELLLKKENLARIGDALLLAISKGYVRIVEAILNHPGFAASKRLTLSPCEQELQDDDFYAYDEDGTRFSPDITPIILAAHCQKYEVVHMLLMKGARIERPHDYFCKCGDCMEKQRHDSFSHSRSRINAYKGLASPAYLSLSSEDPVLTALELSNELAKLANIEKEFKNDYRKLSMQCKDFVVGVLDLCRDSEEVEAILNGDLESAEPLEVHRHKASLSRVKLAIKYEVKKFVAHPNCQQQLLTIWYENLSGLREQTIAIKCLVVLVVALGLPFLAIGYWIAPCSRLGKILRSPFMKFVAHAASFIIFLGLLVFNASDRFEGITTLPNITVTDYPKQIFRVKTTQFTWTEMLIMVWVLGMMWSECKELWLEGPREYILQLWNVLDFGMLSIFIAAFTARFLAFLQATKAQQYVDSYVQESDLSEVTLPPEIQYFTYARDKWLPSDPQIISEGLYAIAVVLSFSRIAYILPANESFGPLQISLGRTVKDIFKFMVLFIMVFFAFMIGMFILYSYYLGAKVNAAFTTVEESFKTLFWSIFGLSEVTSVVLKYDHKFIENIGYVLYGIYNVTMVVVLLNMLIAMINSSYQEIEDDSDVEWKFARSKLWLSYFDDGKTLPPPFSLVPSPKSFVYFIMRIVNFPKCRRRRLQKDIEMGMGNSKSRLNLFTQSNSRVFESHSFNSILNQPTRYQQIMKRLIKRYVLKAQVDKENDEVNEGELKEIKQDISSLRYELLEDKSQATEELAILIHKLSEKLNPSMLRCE
Experimental: as §1

hTRPC7 = biological target: T3, hTRPC7 (Homo sapiens, UniProt Q9HCX4); experiment: as above; type: cell-based; details: 0.3-300μM; effects over the micromolar range
T3 sequence (Q9HCX4 1-862): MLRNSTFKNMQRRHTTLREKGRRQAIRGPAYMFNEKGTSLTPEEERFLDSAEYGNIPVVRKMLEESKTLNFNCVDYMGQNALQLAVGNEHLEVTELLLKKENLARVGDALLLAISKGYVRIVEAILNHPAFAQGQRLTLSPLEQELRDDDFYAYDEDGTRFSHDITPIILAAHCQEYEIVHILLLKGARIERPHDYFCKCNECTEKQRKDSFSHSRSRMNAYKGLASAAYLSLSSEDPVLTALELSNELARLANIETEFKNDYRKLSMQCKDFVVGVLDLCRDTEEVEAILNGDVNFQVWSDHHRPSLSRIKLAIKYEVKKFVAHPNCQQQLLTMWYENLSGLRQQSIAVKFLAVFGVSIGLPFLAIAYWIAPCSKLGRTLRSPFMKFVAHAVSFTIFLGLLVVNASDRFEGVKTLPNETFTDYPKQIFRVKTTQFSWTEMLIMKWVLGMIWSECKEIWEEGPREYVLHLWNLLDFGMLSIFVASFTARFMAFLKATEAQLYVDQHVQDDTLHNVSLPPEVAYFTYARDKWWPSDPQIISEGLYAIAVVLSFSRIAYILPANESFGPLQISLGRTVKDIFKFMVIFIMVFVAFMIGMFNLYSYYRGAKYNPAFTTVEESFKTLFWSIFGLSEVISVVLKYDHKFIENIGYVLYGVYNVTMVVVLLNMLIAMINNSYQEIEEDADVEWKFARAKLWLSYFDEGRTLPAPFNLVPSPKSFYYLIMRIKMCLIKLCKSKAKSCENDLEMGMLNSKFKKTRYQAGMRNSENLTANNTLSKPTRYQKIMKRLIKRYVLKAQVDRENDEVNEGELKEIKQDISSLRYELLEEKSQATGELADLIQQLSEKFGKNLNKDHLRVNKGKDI
Experimental: as §1

hTRPA1 [3] = biological target: T1, hTRPA1; experiment: Single cell confocal Ca2+ imaging (fluo-4) in transfected HEK293 cells; type: cell-based; set-up: host or cells: HEK293 (ATCC CRL-1573.3), transient; details: for Ca2+ response in hTRPA1 expressing cells: 100μM
Text: (§2) Human TRPM8 cDNA was a VersaClone from R&D Systems (RDC0188). Plasmids encoding human TRPA1 and human TRPV1 cDNA were purchased from DNASU plasmid repository (HsCD00080227 and HsCD00081472, respectively). The TRP channel coding sequences were subcloned into pCS2+ to introduce a COOH-term myc tag using the InFusion HD method (Clontech), HindIII/XhoI restriction enzymes (NEB) and the following primers: TRPM8 F–TGGGGACGTCGGAGC-aagctt-[…]; TRPM8 R–AAATCGATGGGATGC-ctcgag-[…]; TRPA1 F-GGACGTCGGAGC-aagctt- atgaagcgcagcctgagg; TRPA1 R-TCGATGGGATGC-ctcgag-[…]; TRPV1 F–GGACGTCGGAGC-aagctt-[…]; TRPV1 R-TCGATGGGATGC-ctcgag-cttctccccggaagcgg (where upper case specifies vector-specific sequences, italics indicate restriction sites, and lower case indicates TRP channel specific sequences). Primers are listed in a 5’ to 3’ orientation.
(§3) HEK293 cells (ATCC CRL-1573.3) were cultured in DMEM supplemented with 10% fetal bovine serum (FBS), penicillin (100 units/ml), streptomycin (100 μg/ml), and L-glutamine (290 μg/ml). Cells were transiently transfected (Lipofectamine LTX, Thermo Fisher) at a density of 2x10^6 cells per T-25 cell-culture flask with TRP channel cDNA. For Ca^2+ imaging assays, HEK293 cells were seeded onto 8-chambered coverglass slides (Thermo Fisher, 115411PK), at a density of 1x10^4 cells one day prior to imaging. Cells were washed twice with HBSS, and incubated with fluo-4-AM (4μM), pluronic F127 (0.4%) and probenecid (2.5mM) for 25 minutes at room temperature. Cells were then washed twice with HBSS, and left at room temperature (30 minutes) for de-esterification. Dishes were mounted on an Olympus IX81 microscope and fluorescence changes (λex = 488nM, λem = 513±15nm bandpass filter) monitored using a Yogokawa spinning disk confocal (CSU-X-M1N) and an Andor iXon Ultra 888 EMCCD camera.

hTRPM8 = hTRPM8 (Homo sapiens, UniProt Q7Z2W7); experiment: as above; type: cell-based; set-up: host or cells: HEK293 (ATCC CRL-1573.3), transient; details: for cytoplasmic Ca2+ signal in TRPM8 expressing cells: menthol 300μM, ±PZQ 100μM, (R)-PZQ or (S)-PZQ 50μM
Sequence of hTRPM8 (Q7Z2W7 whole entry): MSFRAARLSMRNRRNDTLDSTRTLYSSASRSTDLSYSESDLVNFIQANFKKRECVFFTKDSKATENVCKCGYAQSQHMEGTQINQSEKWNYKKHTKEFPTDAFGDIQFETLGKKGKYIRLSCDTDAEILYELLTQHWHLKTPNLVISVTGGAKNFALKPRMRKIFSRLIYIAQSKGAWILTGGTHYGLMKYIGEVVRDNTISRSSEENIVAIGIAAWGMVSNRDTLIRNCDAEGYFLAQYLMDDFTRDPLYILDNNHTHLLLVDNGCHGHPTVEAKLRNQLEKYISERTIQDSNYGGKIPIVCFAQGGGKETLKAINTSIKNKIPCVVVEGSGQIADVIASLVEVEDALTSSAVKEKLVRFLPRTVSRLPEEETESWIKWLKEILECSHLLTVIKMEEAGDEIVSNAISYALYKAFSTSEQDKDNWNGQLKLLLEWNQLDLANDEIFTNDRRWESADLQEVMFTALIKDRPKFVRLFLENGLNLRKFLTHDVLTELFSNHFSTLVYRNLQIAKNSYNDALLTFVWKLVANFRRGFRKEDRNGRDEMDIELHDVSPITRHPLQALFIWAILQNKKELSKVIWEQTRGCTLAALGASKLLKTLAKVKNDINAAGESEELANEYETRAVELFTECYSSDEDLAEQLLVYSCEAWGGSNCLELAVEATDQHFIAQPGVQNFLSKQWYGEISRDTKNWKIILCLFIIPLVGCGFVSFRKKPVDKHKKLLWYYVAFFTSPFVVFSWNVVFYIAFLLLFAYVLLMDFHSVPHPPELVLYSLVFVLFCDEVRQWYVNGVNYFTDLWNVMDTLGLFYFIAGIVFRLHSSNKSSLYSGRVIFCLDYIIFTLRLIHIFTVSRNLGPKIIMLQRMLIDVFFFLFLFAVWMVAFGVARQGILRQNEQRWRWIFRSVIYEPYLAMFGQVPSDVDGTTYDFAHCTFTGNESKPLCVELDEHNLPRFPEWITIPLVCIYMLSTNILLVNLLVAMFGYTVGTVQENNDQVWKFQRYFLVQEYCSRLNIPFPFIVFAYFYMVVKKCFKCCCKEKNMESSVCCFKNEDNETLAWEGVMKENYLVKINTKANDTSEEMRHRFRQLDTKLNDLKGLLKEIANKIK
Text: as §2, §3

[4] = tested on: untransfected HEK293 cells; experiment: Confocal Ca2+ imaging in untransfected HEK293 cells (control); type: cell-based, human; details: menthol 300μM, ±PZQ 100μM, ACh 100μM, capsaicin 1μM, AITC 100μM
Experimental: as §3

[5] = tested on: mesenteric vessels isolated from a TRPM8 knockout mouse; experiment: Wire myography, KPSS-contracted mesenteric vessels from TRPM8 knockout mice; details: TRPM8 KO; menthol 300μM, icilin 50μM, WS-12 50μM
TRPV1 = TRPV1 (Homo sapiens, UniProt Q8NER1); experiment: Single cell confocal Ca2+ imaging (fluo-4) in transfected HEK293 cells; type: cell-based; set-up: host or cells: HEK293 (ATCC CRL-1573.3), transient
Sequence of TRPV1 (Q8NER1 whole entry): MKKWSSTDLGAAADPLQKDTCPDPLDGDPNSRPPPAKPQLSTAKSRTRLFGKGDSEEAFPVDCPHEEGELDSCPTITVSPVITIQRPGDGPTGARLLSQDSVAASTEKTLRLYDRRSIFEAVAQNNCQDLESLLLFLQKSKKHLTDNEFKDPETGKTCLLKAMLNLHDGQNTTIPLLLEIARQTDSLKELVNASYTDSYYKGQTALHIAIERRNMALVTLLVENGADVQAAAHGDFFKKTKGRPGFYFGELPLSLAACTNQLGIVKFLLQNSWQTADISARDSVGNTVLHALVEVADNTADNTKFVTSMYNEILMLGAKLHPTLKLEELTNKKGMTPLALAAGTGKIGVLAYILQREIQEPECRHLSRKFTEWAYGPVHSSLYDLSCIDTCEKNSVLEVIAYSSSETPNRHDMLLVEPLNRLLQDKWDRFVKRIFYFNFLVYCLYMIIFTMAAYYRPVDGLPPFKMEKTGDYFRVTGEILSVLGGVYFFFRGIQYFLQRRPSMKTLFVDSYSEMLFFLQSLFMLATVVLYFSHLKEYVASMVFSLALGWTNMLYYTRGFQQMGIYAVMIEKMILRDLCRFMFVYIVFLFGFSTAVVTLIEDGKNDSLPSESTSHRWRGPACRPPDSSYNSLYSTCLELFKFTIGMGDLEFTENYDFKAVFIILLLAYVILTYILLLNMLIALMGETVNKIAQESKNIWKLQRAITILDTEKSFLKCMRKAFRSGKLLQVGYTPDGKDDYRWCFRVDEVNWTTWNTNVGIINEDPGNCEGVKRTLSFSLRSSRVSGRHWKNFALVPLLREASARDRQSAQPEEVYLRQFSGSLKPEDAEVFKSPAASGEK
Text: as §2, §3

## O=C(C1CCCCC1)N1CC(=O)N2CCc3ccccc3[C@@H]2C1 [(R)-PZQ]
[1]; 50μM, bath application during KPSS-evoked contraction
  change in tension of KPSS-precontracted vessels: initial, small contraction
hTRPA1 [2]
  activity at hTRPA1 in primary screen: activated
hTRPC3
  activity at hTRPC3 in primary screen: activated
hTRPC7
  activity at hTRPC7 in primary screen: activated
hTRPA1 [3]
  Ca2+ response in hTRPA1 expressing cells: activation of hTRPA1
hTRPM8
  cytoplasmic Ca2+ signal in TRPM8 expressing cells: without effect

## CC(=O)OCC[N+](C)(C)C [ACh, acetylcholine]
[4]
  Ca2+ response in untransfected HEK293 cells: caused Ca^2+ transients

## C=CCN=C=S [AITC, allyl isothiocyanate]
[4]
  Ca2+ response in untransfected HEK293 cells: without effect
hTRPA1 [3]
  Ca2+ response in hTRPA1 expressing cells: elevation of cytoplasmic Ca^2+

## Cn1cnc2ncn(Cc3nc(CCc4ccc(Cl)cc4)no3)c(=O)c21 [AM-0902]
hTRPA1 [3]; preincubation, 1μM
  block of AITC-evoked Ca2+ elevation: blocked
  block of ±PZQ-evoked Ca2+ responses: blocked

## Cc1cccc(COc2ccccc2C(=O)N(CCCN)Cc2cccs2)c1 [AMTB]
hTRPM8; AMTB 10μM added 30min before agonists
  block of Ca2+ transients evoked by (S)-PZQ or menthol: blocked

## COc1ccc(NC(=O)[C@@H]2C[C@H](C)CC[C@H]2C(C)C)cc1 [WS-12]
[1]
  relaxation of KPSS-contracted vessel strips by TRPM8 agonists: completely relaxed
[5]
  vasorelaxant effect in TRPM8 KO background: persisted

## COc1cc(CNC(=O)CCCC/C=C/C(C)C)ccc1O [capsaicin]
[4]
  Ca2+ response in untransfected HEK293 cells: neither the addition of the TRPV1 agonist capsaicin (1μM) nor addition of ±PZQ evoked a Ca^2+ response
TRPV1; capsaicin 1μM, ±PZQ 100μM
  Ca2+ signal in TRPV1 expressing cells: evoked Ca^2+ signals

## Oc1cc2c(cc1O)CN(C(=S)NCCc1ccc(Cl)cc1)CCC2 [capsazepine]
TRPV1; capsazepine 10μM
  block of capsaicin-evoked Ca2+ signals: blocked

## O=C1NC(c2cccc([N+](=O)[O-])c2)=CCN1c1ccccc1O [icilin]
[1]
  relaxation of KPSS-contracted vessel strips by TRPM8 agonists: completely relaxed
[5]
  vasorelaxant effect in TRPM8 KO background: persisted

## CC1CCC(C(C)C)C(O)C1 (stereo not drawn) [menthol]
[1]
  relaxation of KPSS-contracted vessel strips by TRPM8 agonists: completely relaxed
[5]
  vasorelaxant effect in TRPM8 KO background: persisted
[4]
  Ca2+ response in untransfected HEK293 cells: neither ±PZQ or menthol elevated cytoplasmic Ca^2+ levels
hTRPM8; 300μM, Ca2+-free media
  menthol-evoked Ca2+ signals in Ca2+-free media: not observed
hTRPM8
  cytoplasmic Ca2+ signal in TRPM8 expressing cells: rapidly elevated cytoplasmic Ca^2+

Reference: article PMC5927461, “Activation of host transient receptor potential (TRP) channels by praziquantel stereoisomers” (PLoS Neglected Tropical Diseases, 2018)
